Like-named read-outs stand apart in the source and are kept apart here.
Experiments:
HT29 = assay: Assay II of bioactive molecules on cell viability in vitro (CCK8); format: cell-based; settings: Homo sapiens, HT-29; CCK8, 3-4 days
Protocol: (§1) Tumor cells NUCG-4, PC-9, HT29, NCI-H358, KYSE520, A431 and A549 were first cultured; the bioactive molecules or fragments of the present disclosure were co-cultured with tumor cells, and then CCK8 reagent (Dojindo Laboratories (Shanghai), Cat: CK04, Lot: JJ744) was added, and the activity of dehydrogenase in mitochondria was detected by reading (detection wavelength 450 nm) on a microplate reader (manufacturer: Molecular Devices, model: SpectraMax M2), to evaluate the inhibitory effect of bioactive molecules on cell proliferation.
(§2) In vitro cell viability assay method: the tumor cells were digested by conventional methods using trypsin, and cells in tube were collected and counted, and then resuspended in the corresponding assay media (containing 2% FBS), which was added to a 96-well plate at 5000-10000 cells/well. Bioactive molecules were diluted with DMSO, and then 100 μL was added to a 96-well plate, the initial concentration was 10 μM, followed by 3-fold serial dilution (12 concentration gradients). The plate was incubated for 3-4 days at 37° C. under 5% CO2. Then, 20 μL of CCK8 reagent was added to each well, and the reaction was carried out for 2-6 h. The plate was read on a microplate reader (detection wavelength was 450 nm).

A431 = assay: as above; format: cell-based; settings: Homo sapiens, A-431; CCK8, 3-4 days
Protocol: as §1, §2

NCI-H358 = assay: as above; format: cell-based; settings: Homo sapiens, CCK8, 3-4 days
Protocol: as §1, §2

NUCG-4 = assay: as above; format: cell-based; settings: CCK8, 3-4 days
Protocol: as §1, §2

KYSE520 = assay: as above; format: cell-based; settings: Homo sapiens, KYSE-520; CCK8, 3-4 days
Protocol: as §1, §2

PC-9 = assay: as above; format: cell-based; settings: Homo sapiens, CCK8, 3-4 days
Protocol: as §1, §2

A549 = assay: as above; format: cell-based; settings: Homo sapiens, CCK8, 3-4 days
Protocol: as §1, §2

HT29 cells = assay: Assay I of bioactive molecules on cell viability in vitro (CCK8); format: cell-based; settings: Homo sapiens, HT-29, CCK8; read-out: EC50(nM), killing of HT29 cells
Protocol: as §1, with “cells” for “cells NUCG-4, PC-9, HT29, NCI-H358, KYSE520, A431 and A549”, “molecules” for “molecules or fragments”
(§3) In vitro cell viability assay method: bioactive molecules (12 concentration gradients) were diluted with corresponding assay medium (containing 2% FBS). The tumor cells were digested by conventional methods using trypsin, and cells in tube were collected and counted, then resuspended in the corresponding assay media (containing 2% FBS). The diluted bioactive molecules were added to a 96-well plate, followed by the cells. Then, 20 μL of CCK8 reagent was added to each well, and the reaction was carried out for 4 h, then the plate was read on a microplate reader (detection wavelength was 450 nm). The experimental results are shown in Tables 6.1, 6.2, 6.3, 6.4, and 6.5.

NCl-H358 cells = assay: as above; format: cell-based; settings: Homo sapiens, read-out: EC50(nM), killing of NCl-H358 cells
Protocol: as §1, with “cells” for “cells NUCG-4, PC-9, HT29, NCI-H358, KYSE520, A431 and A549”, “molecules” for “molecules or fragments”
as §3

HCC1806 cells = assay: as above; format: cell-based; settings: Homo sapiens, HCC1806, 72 h; 7500 cells/well, 3 days; read-out: EC50(nM), killing of HCC1806 cells
Protocol: as §1, with “cells” for “cells NUCG-4, PC-9, HT29, NCI-H358, KYSE520, A431 and A549”, “molecules” for “molecules or fragments”
as §3

NCl-H322M cells = assay: as above; format: cell-based; settings: Homo sapiens, read-out: EC50(nM), killing of NCl-H322M cells
Protocol: as §1, with “cells” for “cells NUCG-4, PC-9, HT29, NCI-H358, KYSE520, A431 and A549”, “molecules” for “molecules or fragments”
as §3

PANC-1 cells = assay: as above; format: cell-based; settings: Homo sapiens, read-out: EC50(nM), killing of PANC-1 cells
Protocol: as §1, with “cells” for “cells NUCG-4, PC-9, HT29, NCI-H358, KYSE520, A431 and A549”, “molecules” for “molecules or fragments”
as §3

[1] = human plasma 37° C., ADC 200 μg/mL, A1.9 released from B7H3-ADC-07(DAR8), DXD from B7H3-C1-ADC-21(DAR4)
Protocol: The appropriate concentration of internal standard stock solution was prepared with DMSO, and then acetonitrile or other reagents were used to prepare the appropriate concentration of the internal standard-containing precipitant.
Incubation of sample: the bacteriostatic agent ProClin was added to the plasma of each genera (human, cynomolgus monkey, ICR mouse) and PBS containing 1% BSA, and the final concentration of ProClin was 0.1%, Sterile operations were adopted. 40 μL working solution of test substance and 360 μL of human plasma were mixed to prepare 200 μg/mL of incubation sample. The plate was sealed with a film, and then incubated at 37° C. under 5% CO2 in an incubator, with a shaking speed of 80 times/mm. At 0 h, 4 h, 24 h, 2 d, 3 d, 7 d, 10 d, 14 d, 17 d, 21 d and 28 d, 20 μL of plasma sample was transferred, to which was added 200 μL of precipitant (containing internal standard), and completely mixed to precipitate the proteins.
All samples were subject to protein precipitating, and then centrifuged to collect the supernatant, which was diluted with water, and analyzed by LC-MS/MS.

For CC[C@@]1(O)C(=O)OCc2c1cc1n(c2=O)Cc2c-1nc1cc3c(cc1c2CCCO)OCO3 [Example A1.9, (S)-7-ethyl-7-hydroxy-14-(3-hydroxypropyl)-10,13-dihydro-11H-[1,3]dioxolo[4,5-g]pyrano[3′,4′:6,7]indolizino[1,2-b]quinolin-8,11(7H)-dione], the EC50 (HT29) was 20.3 nM, the EC50 (A431) was 5.71 nM and the EC50 (NCI-H358) was 46.2 nM. It also gave an EC50 (NUCG-4) of 8.73 nM, an EC50 (KYSE520) of 49.6 nM and an EC50 (PC-9) of 2.06 nM. For the same compound, the EC50 (A549) was 65.9 nM, the EC50 (HT29 cells) was 57.5 nM and the EC50 (NCl-H358 cells) was 60.8 nM. For the same compound, the EC50 (HCC1806 cells) was 1.9 nM, the EC50 (NCl-H322M cells) was 30.4 nM and the EC50 (PANC-1 cells) was 94.5 nM. For the same compound, the “Release ratio (%)” value ([1]; day 0) was 0.14%, the “Release ratio (%)” value ([1]; day 0.17) was 0.10% and the “Release ratio (%)” value ([1]; day 1) was 0.11%. For the same compound, the “Release ratio (%)” value ([1]; day 2) was 0.16%, the “Release ratio (%)” value ([1]; day 3) was 0.14% and the “Release ratio (%)” value ([1]; day 7) was 0.19%. For the same compound, the “Release ratio (%)” value ([1]; day 10) was 0.24%, the “Release ratio (%)” value ([1]; day 14) was 0.35% and the “Release ratio (%)” value ([1]; day 17) was 0.40%. For the same compound, the “Release ratio (%)” value ([1]; day 21) was 0.46% and the “Release ratio (%)” value ([1]; day 28) was 0.82%.

Reference: patent publication US20240108745A1, “BIOACTIVE SUBSTANCE CONJUGATE, PREPARATION METHOD THEREFOR AND USE THEREOF” (MEDILINK THERAPEUTICS (SUZHOU) CO., LTD., priority 2021, published 2024)
